As usually defined, the IC50 is the concentration that gives 50% inhibition. A word on the EC50: it is the midpoint of the concentration-response curve.

These results are taken from US10030016B2 (Sunesis Pharmaceuticals, Inc., priority 2009, dated 2018).

Each structure is given as a SMILES string. Read-outs that look alike come from different tables or passages of the source. Bounds are passed on as bounds.

The target in one experiment is PDK1 (Homo sapiens (Human), UniProt O15530). Kind of experiment: PDK1 kinase assay (coupled PDK1/AKT/FAM-crosstide assay, IMAP fluorescence polarization). Format: biochemical. The procedure, abridged: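 GST-tagged human PDK1 (aa 51-359, 0.75 nM) from insect cells activated unphosphorylated GST-AKT2 (aa 140-467–PIFtide fusion, 10 nM), which phosphorylated 100 nM FAM-crosstide; 40 μM ATP, pH 7.2 Tris/MgCl2, 30 min at 25° C. IMAP fluorescence polarization read-out; ΔmP versus compound concentration fitted with a 4-parameter curve.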
Chain of PDK1 (O15530 51-359): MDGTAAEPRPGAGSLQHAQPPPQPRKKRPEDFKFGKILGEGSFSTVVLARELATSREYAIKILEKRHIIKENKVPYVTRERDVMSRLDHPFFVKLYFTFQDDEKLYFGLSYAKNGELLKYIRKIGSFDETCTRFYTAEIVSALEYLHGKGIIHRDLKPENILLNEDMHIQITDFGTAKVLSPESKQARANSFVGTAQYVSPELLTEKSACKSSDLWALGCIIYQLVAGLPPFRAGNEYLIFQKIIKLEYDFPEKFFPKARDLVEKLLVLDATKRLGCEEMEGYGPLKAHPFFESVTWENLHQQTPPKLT
A general note: Polarisation of emitted light reports the rotation of a fluorescent probe.

Experiment [1] concerns phospho-akt (Thr308) in PC-3 cells. The experiment in a line: Inhibition of phospho-akt (Thr308) in PC-3 cells, MSD phospho-akt 308 ELISA kit. Format: cell-based. The conditions noted are these: Homo sapiens, 2 hours, no serum, read-out: EC50. The procedure, abridged: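 Phospho-Akt (Thr308) levels were measured by MSD ELISA after PC-3 cells received compound for 2 hours in serum-free medium. Controls: DMSO (high), 5 μM wortmannin (low).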
(In general: ELISA stands for enzyme-linked immunosorbent assay.)

Setting [2] is: inhibition of P308 Akt in PC-3 cells using MSD.
The mark [3] stands for this setting: inhibition of phospo-PDK1 in vitro.
[4] abbreviates: inhibition of P308 Akt in PC-3 cells, MSD.

The molecule `C[C@H](NC(=O)c1nc(C#N)cnc1NCc1ccc(-c2cnc(N)c(O[C@@H]3CCNC3)n2)cc1)c1ccc(F)c(F)c1` [Example 161, 3-{4-[5-Amino-6-((R)-pyrrolidin-3-yloxy)-pyrazin-2-yl]-benzylamino}-6-cyano-pyrazine-2-carboxylic acid [(S)-1-(3,4-difluoro-phenyl)-ethyl]-amide] registered an IC50 against PDK1 (inhibition of PDK1 in vitro) of less than 100 nM. Besides, the 50% effective concentration (EC50) in experiment [1] (setting [2]) is less than 1000 nM.

In the case of `Nc1n[nH]c2ncc(-c3ccc(CNc4ncc(C(F)(F)F)cc4C(=O)NC4CCCC4)cc3)cc12` [Example 302, 2-(4-(3-amino-1H-pyrazolo [3,4-b]pyridin-5-yl)benzylamino)-N-cyclopentyl-5-(trifluoromethyl)nicotinamide], the IC50 against PDK1 (inhibition of PDK1 in vitro) is less than 100 nM. In experiment [1] (setting [2]), the EC50 was 1000 to 10000 nM.

Regarding `O=C(NCc1ccc(C(F)(F)F)cc1)c1cccnc1NCc1cccc(-c2c[nH]c3ncccc23)c1` [Example 1.7, 2-(3-(1H-pyrrolo[2,3-b]pyridin-3-yl)benzylamino)-N-(4-(trifluoromethyl)benzyl) nicotinamide], the half-inhibitory concentration (IC50) against PDK1 (setting [3]) fell in the range of 1000 to 5000 nM. Moreover, the EC50 in experiment [1] (setting [4]) was greater than 10000 nM.

`Nc1ncnc2c1c(-c1ccc(CNc3ncc(C(F)(F)F)cc3C(=O)Nc3ccc(F)cc3)cc1)cn2CCCCO` [Example 404, 2-(4-(4-amino-7-(4-hydroxybutyl)-7H-pyrrolo [2,3-d]pyrimidin-5-yl)benzylamino)-N-(4-fluorophenyl)-5-(trifluoromethyl)nicotinamide] yielded an IC50 against PDK1 (inhibition of PDK1 in vitro) of less than 100 nM. Moreover, in experiment [1] (setting [2]), the EC50 lay within 1000 to 10000 nM.

Regarding `CC(C)Oc1cc(CNc2ncccc2C(=O)N(C)C2CC2)cc(-c2c[nH]c3ncc(C(=O)NC4CC4)cc23)c1` [Example 4.1.10, N-cyclopropyl-3-{3-[({3-[cyclopropyl(methyl)carbamoyl]pyridin-2-yl}amino)methyl]-5-(propan-2-yloxy)phenyl}-1H-pyrrolo[2,3-b] pyridine-5-carboxamide], the IC50 against PDK1 (setting [3]) was greater than 5000 nM. In addition, in experiment [1] (setting [4]), the EC50 lay within 1000 to 10000 nM.

The molecule `CCNC(=O)c1cccnc1NCc1cccc(-c2c[nH]c3ncccc23)c1` [Example 1.11, N-ethyl-2-{[3-(1H-pyrrolo[2,3-b]pyridin-3-yl)benzyl]amino}pyridine-3-carboxamide] returned an IC50 against PDK1 (setting [3]) greater than 5000 nM. For the same molecule, the EC50 in experiment [1] (setting [4]) fell in the range of 1000 to 10000 nM.

In turn, `COCCn1cc(-c2ccc(CNc3ncc(C(F)(F)F)cc3C(=O)Nc3ccc(F)cc3)cc2)c2c(N)ncnc21` [Example 431] registered a concentration for half-maximal inhibition (IC50) against PDK1 (inhibition of PDK1 in vitro) of less than 100 nM. Moreover, the EC50 in experiment [1] (setting [2]) fell in the range of 1000 to 10000 nM.

`Nc1ncnn2c(-c3ccc(CNc4ncc(C(F)(F)F)cc4C(=O)Nc4ccc(F)cc4)cc3)ccc12` [Example 180, 2-[4-(4-Amino-pyrrolo [2,1-f][1,2,4]triazin-7-yl)-benzylamino]-N-(4-fluoro-phenyl)-5-trifluoromethyl-nicotinamide] returned an IC50 at PDK1 (inhibition of PDK1 in vitro) of less than 100 nM. Moreover, in experiment [1] (setting [2]), the EC50 fell in the range of 1000 to 10000 nM.

For the molecule `C[C@H](NC(=O)c1nc(C#N)cnc1N[C@H](C)c1ccc(-c2cnc3[nH]nc(N)c3n2)cc1)c1ccc(F)c(F)c1` [Example 411, 3-{(R)-1-[4-(3-Amino-1H-pyrazolo[3,4-b]pyrazin-5-yl)-phenyl]-ethylamino}-6-cyano-pyrazine-2-carboxylic acid [(S)-1-(3,4-difluoro-phenyl)-ethyl]-amide], at PDK1 (inhibition of PDK1 in vitro), the IC50 is less than 100 nM. For the same molecule, the EC50 in experiment [1] (setting [2]) was less than 1000 nM.

Turning to `C[C@H](NC(=O)c1cc(C#N)cnc1NCc1ccc(-c2cnc(N)c(O[C@H]3CCNC3)n2)cc1)c1ccc(F)cc1` [Example 162, 2-{4-[5-Amino-6-((S)-pyrrolidin-3-yloxy)-pyrazin-2-yl]-benzylamino}-5-cyano-N-[(S)-1-(4-fluoro-phenyl)-ethyl]-nicotinamide], the IC50 on PDK1 (inhibition of PDK1 in vitro) was less than 100 nM. The EC50 in experiment [1] (setting [2]) is less than 1000 nM.

In turn, `CN(C)CC(=O)Nc1cnc(NCc2ccc(-c3ccc4ncnc(N)c4c3)s2)c(C(=O)NCc2ccc(F)c(F)c2)c1` [Example 8.5.8, 2-({[5-(4-aminoquinazolin-6-yl)thiophen-2-yl]methyl}amino)-N-(3,4-difluorobenzyl)-5-[(N,N-dimethylglycyl)amino] pyridine-3-carboxamide] gave an IC50 at PDK1 (setting [3]) of 100 to 1000 nM. The EC50 in experiment [1] (setting [4]) was 1000 to 10000 nM.
